{
  "source": "patent US20160095861A1",
  "about": "“OPHTHALMIC OINTMENTS COMPRISING VALGANCICLOVIR HYDROCHLORIDE FOR TREATING INFECTIVE EYE DISEASES” (SKIRON BIOSCIENCES, priority 2014, published 2016)",
  "key": {"[1]": {"tested_on": "CMV-induced inflammation in the eye", "experiment": "Valganciclovir hydrochloride ophthalmic ointments tested in a patient with CMV-induced inflammation in the eye (Example 4)", "type": "in vivo, human", "conditions": "topical ophthalmic ointment, 1% w/w and 5% w/w, one patient", "method": "The 1% w/w and 5% w/w valganciclovir hydrochloride ophthalmic ointments were tested in a patient with CMV-induced inflammation in the eye."}, "[2]": {"tested_on": "hypertensive anterior uveitis associated with clinical signs of cytomegalovirus (CMV) iritis", "experiment": "Case report: topical valganciclovir for hypertensive anterior uveitis with clinical signs of CMV iritis (Example 5)", "type": "in vivo, human", "method": "Valganciclovir was extracted from the tablet form (450 mg, Valcyte, Roche). Briefly, tablets were dissolved in 0.001N HCl (2 ml per tablet), the insoluble excipients were isolated by centrifugation at 16,000 g, the solution was then filtered through 0.2 μm filter into ice-cold isopropanol (20 ml per tablet) leading to precipitation of the valganciclovir. The precipitate was spun down at 3,000 g, isopropanol was decanted and remaining volatile solvents were removed in the lyophilizer. The identity of valganciclovir was confirmed by liquid chromatography-mass spectrometry (LC-MS). 1% (w/w) valganciclovir ointment in the oleaginous base (20% mineral oil and 80% white petrolatum) was made by following standard compounding practices.\nThe patient was referred to us […] with chronic low-grade iritis and IOPs that were not adequately managed with medications (prednisolone acetate, brimonidine, and dorzolamide/timolol). Based on the history, pattern of keratic precipitates, mild anterior chamber inflammation, iris atrophy and elevated IOP (25 mmHg in the right eye and 16 mmHg in the left eye) CMV iritis was suspected. […]. PCR of the aqueous was negative for CMV, herpes simplex virus (HSV), and varicella-zoster virus (VZV) DNA.^6 However, because we had previously observed false negative PCR results in a substantial proportion of eyes suspected to have CMV iritis on clinical grounds, we decided to start a course of oral valganciclovir (900 mg twice daily). Within six weeks their IOP returned to normal levels and after 3 months all keratic precipitates completely resolved.\nNine months after the start of valganciclovir therapy, valganciclovir was discontinued and twice daily ganciclovir gel, 0.15%, was started. […] The patient refused to restart oral valganciclovir due to concerns about the toxicity of systemic valganciclovir, and continued with ganciclovir gel, topical corticosteroids, and topical anti-hypertensives.\nAt this same time, the patient began treating their condition with self-compounded topical valganciclovir. They initially wore a contact lens soaked overnight in 5% valganciclovir and later formulated 5% valganciclovir eye drops, which they administered 2-4 times per day. With this approach the patient's ocular inflammation and IOP improved and surgery was postponed, but the patient still required topical corticosteroids and topical anti-hypertensive medications. After 3 years of controlled inflammation on valganciclovir eye drops, the patient became concerned about medication stability and began formulating 1% valganciclovir ointment in an oleaginous base (80% white petrolatum and 20% mineral oil). […] With long-term use of topical valganciclovir ointment, the patient was able to taper off topical corticosteroids and topical anti-hypertensives and has remained stable since then (9 months)."}},
  "note": "Where a name gives a salt, the structure may show the parent alone.",
  "data": [
    {"smiles": "CC(C)[C@H](N)C(=O)OCC(CO)OCn1cnc2c(=O)nc(N)[nH]c21", "note": "(stereo partly drawn) [valganciclovir, valganciclovir hydrochloride]", "values": [
      {"measurement": "control of the inflammation and lowering of the intraocular pressure", "setting": "[1]", "result": "effectiveness"},
      {"measurement": "ocular inflammation and intraocular pressure", "setting": "[2]; oral valganciclovir together with topical corticosteroids", "result": "ocular inflammation resolved and intraocular pressure normalized"},
      {"measurement": "disease status after dose reduction", "setting": "[2]; oral, 450 mg twice daily", "result": "the disease remained quiet"},
      {"measurement": "leukopenia (complete blood counts tested periodically)", "setting": "[2]; oral, 900 mg twice daily", "result": "no leukopenia developed"},
      {"measurement": "time until IOP returned to normal levels", "setting": "[2]; oral, 900 mg twice daily", "result": "six"},
      {"measurement": "time until all keratic precipitates completely resolved", "setting": "[2]; oral, 900 mg twice daily", "result": 3, "unit": "months"}
    ]}
  ]
}
